Source: US20140163099A1, “ANTIMICROBIAL COMPOSITION” (TAKASAGO INTERNATIONAL CORPORATION, priority 2011, published 2014)
In brackets after ≈: the same amount, converted by molar mass.

How the values were obtained:
Assay type in all cases: cell-based
[1] = tested on: Actinomyces viscosus (JCM8352); experiment: Growth inhibition activity (MIC, agar) against anaerobic bacteria; settings: Actinomyces viscosus, 72 h; strain JCM8352; Trypticase Soy Broth agar, 37 degrees C. for 3 days; read-out: MIC (Minimum Inhibitory Concentration)
Procedure: (§1) In the present invention, the growth inhibition activity, which is an indicator of the antimicrobial activity, is evaluated by determining the Minimum Inhibitory Concentration (MIC) with an agar or liquid medium.
(§2) In the test for growth inhibition activity, the following strains were used: • Acne bacteria: Propionibacterium acnes (JCM6473) and (ATCC6919) • Abscess bacteria: Bacteroides fragilis (GAI5560) • Cavity-causing bacteria: Streptococcus mutans (JCM5175), Actinomyces naeslundii (JCM8350) and Actinomyces viscosus (JCM8352) • Periodontal pathogen: Fusobacterium nucleatum (JCM6328), Porphyromonas gingivalis (JCM8525), Prevotella nigrescens (JCM6322)
(§3) The test strains were cultured in a GAM medium (Nissui Pharmaceutical Co., LTD), a Schaedler Broth (BBL) or a Trypticase Soy Broth (BBL) liquid medium, and then the grown bacteria were diluted in saline to prepare turbidity 0.5 McFarland of the bacteria fluids for inoculation. The bacteria were cultured at 37 degrees C. for 3 days under an anaerobic condition by using AnaeroPack® from MGC.
(§4) Furthermore, in order to examine the growth inhibition activities against the bacteria by the above cooling agent, the concentration of the cooling agents: (3S)-CA20, (3R)-CA20, CA1, CA5, CA15, CA55 or CA MGH was diluted with ethanol to the required level of concentrations for the determining the Minimum Inhibitory Concentration to produce the sample liquids.
(§5) Next, 100 μL of each sample liquid was added to 10 mL of a Trypticase Soy Broth agar medium solution in a soluble state, and each agar medium solution was poured into a petri dish and solidified, to prepare the test plates. Subsequently, 5 μL of above the bacteria fluids for inoculation were stamped on the test plates, and then the test plates were cultured at 37 degrees C. for 3 days.
(§6) The minimum concentration of the cooling agent in which the growth of bacteria could not be confirmed was considered as the MIC (Minimum Inhibitory Concentration).
as §6

[2] = tested on: Prevotella nigrescens (JCM6322); experiment: as above; settings: Prevotella nigrescens, JCM6322, 72 h, strain JCM6322; Trypticase Soy Broth agar, 37 degrees C. for 3 days; read-out: MIC (Minimum Inhibitory Concentration)
Procedure: as §1, §2, §3, §4, §5, §6, §6

[3] = tested on: Streptococcus mutans (JCM5175); experiment: as above; settings: Streptococcus mutans, 72 h; strain JCM5175; Trypticase Soy Broth agar, 37 degrees C. for 3 days; read-out: MIC (Minimum Inhibitory Concentration)
Procedure: as §1, §2, §3, §4, §5, §6, §6

[4] = tested on: Propionibacterium acnes (JCM6473); experiment: as above; settings: Cutibacterium acnes, 72 h; strain JCM6473; Trypticase Soy Broth agar, 37 degrees C. for 3 days; read-out: MIC (Minimum Inhibitory Concentration)
Procedure: as §1, §2, §3, §4, §5, §6, §6

[5] = tested on: Propionibacterium acnes (ATCC6919); experiment: as above; settings: Cutibacterium acnes, ATCC6919, 72 h, strain ATCC6919; Trypticase Soy Broth agar, 37 degrees C. for 3 days; read-out: MIC (Minimum Inhibitory Concentration)
Procedure: as §1, §2, §3, §4, §5, §6, §6

[6] = tested on: Actinomyces naeslundii (JCM8350); experiment: as above; settings: Actinomyces naeslundii, JCM8350, 72 h, strain JCM8350; Trypticase Soy Broth agar, 37 degrees C. for 3 days; read-out: MIC (Minimum Inhibitory Concentration)
Procedure: as §1, §2, §3, §4, §5, §6, §6

[7] = tested on: Bacteroides fragilis (GAI5560); experiment: as above; settings: Bacteroides fragilis, 72 h; strain GAI5560; Trypticase Soy Broth agar, 37 degrees C. for 3 days; read-out: MIC (Minimum Inhibitory Concentration)
Procedure: as §1, §2, §3, §4, §5, §6, §6

[8] = tested on: Fusobacterium nucleatum (JCM6328); experiment: as above; settings: 72 h, strain JCM6328, Trypticase Soy Broth agar, 37 degrees C. for 3 days, read-out: MIC (Minimum Inhibitory Concentration)
Procedure: as §1, §2, §3, §4, §5, §6, §6

[9] = tested on: Porphyromonas gingivalis (JCM8525); experiment: as above; settings: Porphyromonas gingivalis, JCM8525, 72 h, strain JCM8525; Trypticase Soy Broth agar, 37 degrees C. for 3 days; read-out: MIC (Minimum Inhibitory Concentration)
Procedure: as §1, §2, §3, §4, §5, §6, §6

target microbe species = experiment: Growth inhibition activity compared with 3-menthoxypropane-1,2-diol; settings: depending on kinds of target microbe species
Text: Although the all present cooling agents can have growth inhibition activities against both aerobic and anaerobic microorganisms (e.g. bacteria and fungi, etc.), menthyl 3-hydroxybutanoate and 3-menthoxypropan-1-ol have specifically high growth inhibition activities and potent growth inhibition activities against both aerobic and anaerobic microorganisms. Examples of microorganisms include Corynebacterium, Actinomyces and so on. Menthyl 3-hydroxybutanoate and 3-menthoxypropan-1-ol have 2 to 8 times as much growth inhibition activity as 3-menthoxypropane-1,2-diol (which is known as an antimicrobial agent), and can have more than or equal to 8 times as much growth inhibition activity as 3-menthoxypropane-1,2-diol, depending on kinds of target microbe species.
Furthermore, when compared 2-methyl-3-(menthoxy)propane-1,2-diol with 3-menthoxypropane-1,2-diol (which is known as an antimicrobial agent), the former has about 2 times as much growth inhibition activity as the latter, depending on kinds of target microbe species. […]
as §1

| MIC [1] [µg/mL] | MIC [2] [µg/mL] | MIC [3] [µg/mL] | MIC [4] [µg/mL] | MIC [5] [µg/mL] | MIC [6] [µg/mL] | MIC [7] [µg/mL] | MIC [8] [µg/mL] | MIC [9] [µg/mL] | Structure (SMILES) | growth inhibition activity as multiple of 3-menthoxypropane-1,2-diol (target microbe species) |
| --- | --- | --- | --- | --- | --- | --- | --- | --- | --- | --- |
| 200 (≈ 933 µM) | 100 (≈ 467 µM) | 400 (≈ 1870 µM) | 200 (≈ 933 µM) | 400 (≈ 1870 µM) | 400 (≈ 1870 µM) | 100 (≈ 467 µM) | 400 (≈ 1870 µM) |  | CC1CCC(C(C)C)C(OCCCO)C1 (stereo not shown) [CA15, 3-menthoxypropan-1-ol] |  |
| > 1600 | 1600 (≈ 9290 µM) | > 1600 | > 1600 | > 1600 | > 1600 | 1600 (≈ 9290 µM) | > 1600 |  | CC1CCC(C(C)(C)O)C(O)C1 (stereo not shown) [CA38, p-menthane-3,8-diol, reference compound] |  |
| 800 (≈ 3270 µM) | 100 (≈ 409 µM) | 800 (≈ 3270 µM) | 800 (≈ 3270 µM) | 800 (≈ 3270 µM) | 800 (≈ 3270 µM) | 100 (≈ 409 µM) | 800 (≈ 3270 µM) |  | CC1CCC(C(C)C)C(OCCOCCO)C1 (stereo not shown) [CA55, 2-(2-menthoxyethoxy)ethanol] |  |
| 200 (≈ 998 µM) | 200 (≈ 998 µM) | 800 (≈ 3990 µM) | 400 (≈ 2000 µM) | 400 (≈ 2000 µM) | 800 (≈ 3990 µM) | 200 (≈ 998 µM) | 400 (≈ 2000 µM) |  | CC1CCC(C(C)C)C(OCCO)C1 (stereo not shown) [CA5, 2-(menthoxy)ethanol] |  |
| < 50 | 200 (≈ 868 µM) | 800 (≈ 3470 µM) | 800 (≈ 3470 µM) | 800 (≈ 3470 µM) | 800 (≈ 3470 µM) | 100 (≈ 434 µM) | 800 (≈ 3470 µM) |  | CC1CCC(C(C)C)C(OCC(O)CO)C1 (stereo not shown) [CA10, 3-menthoxypropane-1,2-diol, reference compound] |  |
| 200 (≈ 942 µM) |  | 100 (≈ 471 µM) | 200 (≈ 942 µM) | 100 (≈ 471 µM) | 200 (≈ 942 µM) | 50 (≈ 236 µM) | 100 (≈ 471 µM) | 50 (≈ 236 µM) | CC1CCC(C(C)C)C(OC(=O)C=O)C1 (stereo not shown) [CA MGH, menthyl glyoxylate] |  |
| 100 (≈ 413 µM) | 100 (≈ 413 µM) | 200 (≈ 825 µM) | 200 (≈ 825 µM) | 200 (≈ 825 µM) | 100 (≈ 413 µM) | 100 (≈ 413 µM) |  | < 50 | CC(O)CC(=O)OC1CC(C)CCC1C(C)C [(3S)-CA20, menthyl 3-hydroxybutanoate] |  |
| 1600 (≈ 10200 µM) | 1600 (≈ 10200 µM) | > 1600 | 1600 (≈ 10200 µM) | 1600 (≈ 10200 µM) | 1600 (≈ 10200 µM) | 1600 (≈ 10200 µM) | 1600 (≈ 10200 µM) |  | CC1CCC(C(C)C)C(O)C1 (stereo not drawn) [l-menthol, menthol, reference compound] |  |
| > 1600 | > 1600 | > 1600 | > 1600 | > 1600 | > 1600 | > 1600 |  | > 1600 | CNC(=O)C(C)(C(C)C)C(C)C [WS-23, N-methyl-2-isopropyl-2,3-dimethylbutanamide, reference compound] |  |

| Structure (SMILES) | MIC [1] [µg/mL] | MIC [2] [µg/mL] | MIC [3] [µg/mL] | MIC [4] [µg/mL] | MIC [5] [µg/mL] | MIC [6] [µg/mL] | MIC [7] [µg/mL] | MIC [8] [µg/mL] | MIC [9] [µg/mL] | growth inhibition activity as multiple of 3-menthoxypropane-1,2-diol (target microbe species) |
| --- | --- | --- | --- | --- | --- | --- | --- | --- | --- | --- |
| CC1CCC(C(C)C)C(OCC(C)(O)CO)C1 (stereo not shown) [CA1, 2-methyl-3-(menthoxy)propane-1,2-diol] | < 50 | 200 (≈ 818 µM) | 800 (≈ 3270 µM) | 400 (≈ 1640 µM) | 400 (≈ 1640 µM) | 800 (≈ 3270 µM) | 100 (≈ 409 µM) | 800 (≈ 3270 µM) | 200 (≈ 818 µM) | about 2 times |
